Source: patent publication US20150148377A1, “Quinoline Derivatives” (NOVARTIS AG, priority 2011, published 2015)

Tests used:
PI3K alpha = target: T1, PI3K alpha (Homo sapiens, UniProt P42336); assay: Enzymatic PI3K alpha isoform inhibition (lipid kinase activity, Kinase-Glo); assay type: biochemical; details: enzymatic assay
T1 construct: His tag (C); made in house; host or cells: baculovirus; Tn5 (Trichoplusia ni) or TiniPro insect cells
Method: The kinase reaction is performed in a final volume of 50 μl per well of a half area COSTAR, 96 well plate. The final concentrations of ATP and phosphatidyl inositol in the assay are 5 μM and 6 μg/mL, respectively. The reaction is started by the addition of PI3 kinase, e.g. PI3 kinase δ.
(§1) In a more preferred assay, the kinase reaction is performed in a final volume of 10 μl per well of a low volume non-binding CORNING, 384 well black plate (Cat. No. #3676). The final concentrations of ATP and phosphatidyl inositol (PI) in the assay are 1 μM and 10 μg/mL, respectively. The reaction is started by the addition of ATP.
(§2) The components of the assay are added per well as follows:
(§3) 50 nl test compounds in 90% DMSO per well, in columns 1-20, 8 concentrations (1/3 and 1/3.33 serial dilution step) in single. • Low control: 50 nl of 90% DMSO in half the wells of columns 23-24 (0.45% in final). • High control: 50 nl of reference compound (e.g. compound of Example 7 in WO 2006/122806) in the other half of columns 23-24 (2.5 μM in final). • Standard: 50 nl of reference compound as just mentioned diluted as the test compounds in columns 21-22. • 20 mL ‘buffer’ are prepared per assay: • 200 μl of 1M TRIS HCl pH7.5 (10 mM in final) • 60 μl of 1M MgCl2 (3 mM in final) • 500 μl of 2M NaCl (50 mM in final) • 100 μl of 10% CHAPS (0.05% in final) • 200 μl of 100 mM DTT (1 mM in final) • 18.94 mL of nanopure water • 10 mL ‘PI’ are prepared per assay: • 200 μl of 1 mg/mL 1-alpha-Phosphatidylinositol (Liver Bovine, Avanti Polar Lipids Cat. No. 840042C MW=909.12) prepared in 3% OctylGlucoside (10 μg/mL in final) • 9.8 mL of ‘buffer’ • 10 mL ‘ATP’ are prepared per assay: • 6.7 μl of 3 mM stock of ATP giving a final concentration of 1 μM per well • 10 mL of ‘buffer’ • 2.5 mL of each PI3K construct are prepared per assay in ‘PI’ with the following final concentration: • 10 nM PI3K alfa EMV B1075 • 25 nM beta EMV BV949 • 10 nM delta EMV BV1060 • 150 nM gamma EMV BV950 • 5 μl of ‘PI/PI3K’ are added per well. • 5 μl ‘ATP’ are added per well to start the reaction. • The plates are then incubated at room temperature for 60 minutes (alfa, beta, delta) or 120 minutes (gamma). • The reaction is terminated by the addition of 10 μl Kinase-Glo (Promega Cat. No. #6714). • The assay plates are read after 10 minutes in Synergy 2 reader (BioTek, Vermont USA) with an integration time of 100 milliseconds and sensitivity set to 191. • Output: The High control is around 60'000 counts and the Low control is 30'000 or lower • This luminescence assay gives a useful Z′ ratio between 0.4 and 0.7
(§4) IC50 is determined by a four parameter curve fitting routine that comes along with “excel fit”. A four parameter logistic equation is used to calculate IC50 values (IDBS XLfit) of the percentage inhibition of each compound at 8 concentrations (usually 10, 3.0, 1.0, 0.3, 0.1, 0.030, 0.010 and 0.003 μM). Alternatively, IC50 values are calculated using idbsXLfit model 204, which is a 4 parameter logistic model.
(§5) Yet alternatively, for an ATP depletion assay, compounds of the formula I to be tested are dissolved in DMSO and directly distributed into a white 384-well plate at 0.5 μl per well. To start the reaction, 10 μl of 10 nM PI3 kinase and 5 μg/mL 1-alpha-phosphatidylinositol (PI) are added into each well followed by 10 μl of 2 μM ATP. The reaction is performed until approx 50% of the ATP is depleted, and then stopped by the addition of 20 μl of Kinase-Glo solution (Promega Corp., Madison, Wis., USA). The stopped reaction is incubated for 5 minutes and the remaining ATP is then detected via luminescence. IC50 values are then determined.

PI3K delta = target: T2, PI3K delta (Homo sapiens, UniProt O00329); assay: Enzymatic PI3K delta isoform inhibition (lipid kinase activity, Kinase-Glo); assay type: biochemical; details: enzymatic assay
T2 construct: for the full-length p110-d subunit are generated and fused by overlapping PCR; His tag (C); made in house; host or cells: baculovirus; Tn5 (Trichoplusia ni) or TiniPro insect cells
T2 sequence (O00329 with tags, fused parts or gaps limits assumed): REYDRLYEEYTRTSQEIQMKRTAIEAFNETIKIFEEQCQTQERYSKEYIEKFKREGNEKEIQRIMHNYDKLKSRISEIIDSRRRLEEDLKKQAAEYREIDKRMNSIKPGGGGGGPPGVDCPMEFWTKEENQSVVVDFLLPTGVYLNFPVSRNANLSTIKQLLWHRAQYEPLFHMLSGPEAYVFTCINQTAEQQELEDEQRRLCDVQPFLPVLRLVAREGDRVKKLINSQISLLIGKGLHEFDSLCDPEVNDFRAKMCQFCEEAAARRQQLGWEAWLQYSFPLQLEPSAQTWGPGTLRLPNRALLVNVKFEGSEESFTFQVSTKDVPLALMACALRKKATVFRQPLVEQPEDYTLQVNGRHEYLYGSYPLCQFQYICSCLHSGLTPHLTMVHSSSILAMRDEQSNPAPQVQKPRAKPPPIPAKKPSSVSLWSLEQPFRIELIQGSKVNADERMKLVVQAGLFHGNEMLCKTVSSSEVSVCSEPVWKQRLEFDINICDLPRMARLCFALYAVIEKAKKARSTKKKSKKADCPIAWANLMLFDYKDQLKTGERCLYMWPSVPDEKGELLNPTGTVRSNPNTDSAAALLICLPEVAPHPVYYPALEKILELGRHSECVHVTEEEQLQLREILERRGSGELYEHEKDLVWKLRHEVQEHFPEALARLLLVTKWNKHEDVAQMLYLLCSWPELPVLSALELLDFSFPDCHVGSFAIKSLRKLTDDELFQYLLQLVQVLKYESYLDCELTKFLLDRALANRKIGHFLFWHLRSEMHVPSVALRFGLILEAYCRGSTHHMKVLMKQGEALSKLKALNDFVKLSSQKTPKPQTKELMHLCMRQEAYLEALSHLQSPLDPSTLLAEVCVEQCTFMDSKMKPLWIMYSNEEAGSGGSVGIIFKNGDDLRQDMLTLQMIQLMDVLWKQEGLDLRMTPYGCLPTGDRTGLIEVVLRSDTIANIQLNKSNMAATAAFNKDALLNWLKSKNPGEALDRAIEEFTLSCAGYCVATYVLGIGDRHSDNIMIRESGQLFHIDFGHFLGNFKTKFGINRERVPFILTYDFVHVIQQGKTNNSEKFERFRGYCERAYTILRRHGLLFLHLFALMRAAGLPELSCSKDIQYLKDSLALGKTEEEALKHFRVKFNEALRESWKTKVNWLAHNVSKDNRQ
Method: as §1, §2, §3, §4, §5

T1 sequence (P42336 with tags, fused parts or gaps limits assumed): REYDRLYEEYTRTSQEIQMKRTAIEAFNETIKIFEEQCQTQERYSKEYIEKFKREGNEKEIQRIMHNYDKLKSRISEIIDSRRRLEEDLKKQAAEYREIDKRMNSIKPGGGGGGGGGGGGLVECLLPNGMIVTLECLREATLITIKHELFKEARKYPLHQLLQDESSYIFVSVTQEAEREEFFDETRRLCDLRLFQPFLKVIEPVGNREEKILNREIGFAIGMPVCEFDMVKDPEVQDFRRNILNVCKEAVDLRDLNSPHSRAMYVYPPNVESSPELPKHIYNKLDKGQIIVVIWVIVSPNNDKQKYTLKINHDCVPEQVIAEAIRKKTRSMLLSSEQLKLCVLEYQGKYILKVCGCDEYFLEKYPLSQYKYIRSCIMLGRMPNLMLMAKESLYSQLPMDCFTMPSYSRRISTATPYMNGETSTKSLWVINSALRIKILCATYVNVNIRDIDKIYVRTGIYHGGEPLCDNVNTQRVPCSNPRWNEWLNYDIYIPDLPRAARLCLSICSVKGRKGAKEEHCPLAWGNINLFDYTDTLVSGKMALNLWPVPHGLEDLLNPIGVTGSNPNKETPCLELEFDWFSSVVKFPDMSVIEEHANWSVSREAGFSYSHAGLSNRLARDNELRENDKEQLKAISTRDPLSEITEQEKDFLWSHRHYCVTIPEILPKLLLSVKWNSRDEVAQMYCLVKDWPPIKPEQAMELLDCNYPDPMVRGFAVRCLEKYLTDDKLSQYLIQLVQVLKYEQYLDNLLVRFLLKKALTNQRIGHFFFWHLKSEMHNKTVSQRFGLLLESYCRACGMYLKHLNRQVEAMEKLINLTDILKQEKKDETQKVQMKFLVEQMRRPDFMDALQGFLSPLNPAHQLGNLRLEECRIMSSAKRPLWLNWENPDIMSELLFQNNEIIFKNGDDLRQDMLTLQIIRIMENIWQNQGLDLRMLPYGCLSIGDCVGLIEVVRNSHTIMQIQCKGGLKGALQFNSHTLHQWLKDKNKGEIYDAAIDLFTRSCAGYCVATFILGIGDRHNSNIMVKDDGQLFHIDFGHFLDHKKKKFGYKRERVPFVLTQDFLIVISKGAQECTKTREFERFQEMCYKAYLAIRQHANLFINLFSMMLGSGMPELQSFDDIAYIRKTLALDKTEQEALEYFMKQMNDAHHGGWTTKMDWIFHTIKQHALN

COc1ncc(-c2ccnc3ccc(O[C@H]4CCN(C(=O)C5CCOCC5)C4)c(C)c23)cc1C#N [Example B8, 2-Methoxy-5-{5-methyl-6-[(S)-1-(tetrahydro-pyran-4-carbonyl)-pyrrolidin-3-yloxy]-quinolin-4-yl}-nicotinonitrile]
IC50 (PI3K alpha): 1440 nM
IC50 (PI3K delta): 60 nM
